One assay deals with r(G4C2)exp. In words: ASO-Bind-Map target profiling in patient-derived LCLs. The format is cell-based, human. The conditions noted are these: ASO 100 nM. As for the experimental part:
Target profiling by ASO-Bind-Map. LCLs were first treated with compounds overnight at 37° C. and then transfected with G4C2-ASO (100 nM; Table 3). The cells were then incubated for another 24 h at 37° C. followed by extraction of total RNA as described above. The levels of various fragments were then measured by RT-qPCR as described above.

The subject of the next assay is (G4C2)66-No ATG-GFP mRNA. The assay can be described thus: Polysome profiling in HEK293T cells. The conditions noted are these: 200 nM. Format: cell-based, human. As for the experimental part: Polysome Profiling. Polysome profiling studies were completed similarly to previously described methods (12, 30) Yang et al., 2015). Briefly, 100 mm dishes were plated with ˜3.5×10^6 HEK293T cells and batch-transfected for 5 h with 2.5 μg (G4C2)66-No ATG-GFP using Lipofectamine 3000 reagent according to manufacturer protocol. Then, cells were collected and plated overnight in 100 mm dishes with ˜2.5×10^6 HEK293T cells and treated with vehicle (DMSO, 0.5% final concentration) or 3 (200 nM). Upon 24 h treatment, cells were treated with cycloheximide (CHX, 0.1 mg/mL) and incubated for 5 min at 37° C. The medium was removed, and cells were washed by 2×7.5 mL ice cold DPBS supplemented with 0.1 mg/mL CHX. Cells were then lysed with 250 μL of ice-cold Cell Lysis Buffer [10 mM NaCl, 10 mM MgCl2, 10 mM Tris, pH 7.5, 1% Triton X-100, 1% sodium deoxycholate, 1 mM DTT supplemented with […] cycloheximide, and 0.2 U/μL RNAsin (Promega)]. The lysate obtained from 3×100 mm dishes were combined (˜500 μL final volume) and transferred to an Eppendorf tube, passed through a 21G needle several times and centrifuged for 5 min at 13,200 rpm and 4° C. The supernatant was transferred to a new tube and stored at −80° C. until further use. Cell lysates were then loaded on 10-50% sucrose gradients (prepared in 20 mM HEPES, pH 7.4, 100 mM KCl, 5 mM MgCl2, 3 mM DTT, and 0.1 mg/mL CHX) and separated at 40000 rpm for 2 h at 4° C. […] The levels of (G4C2)66-No ATG-GFP mRNA in each fraction were measured by qPCR as described above with primers specific for GFP (non-canonical translation), GAPDH, respectively (canonical translation) (Table 1). Data from vehicle- and compound-treated samples were normalized as follows: triplicate Ct values were averaged and ΔCt values were calculated; ΔΔCt values were afforded by comparing treated to untreated ΔCt values. […]

Assay [1] concerns the target T1, ternary complex r(G4C2)66, RNase L and 7 (Homo sapiens, UniProt Q05823).
T1 construct: for degradation by recruiting the endogenous nuclease Rnase L; endogenous in cells; host or cells: HEK293T cells transfected with the (G4C2)66-No ATG-GFP plasmid (RNA only)
The assay can be described thus: RNase L RNA immunoprecipitation in HEK293T cells. The format is cell-based. Conditions: 500 nM, compared to vehicle. As for the experimental part: RNA Immunoprecipitation. HEK293T cells were transfected with (G4C2)66-No ATG-GFP plasmid as described above, split into in 6-well plates, grown to ˜70% confluency, and treated with 500 nM 7 diluted in growth media for 24 h. The cell was washed with 1×PBS, removed from the plate with Accutase (Innovative Cell Technologies, Inc.), and then washed with 1×PBS. Cells were then lysed in 100 μL of M-PER buffer supplemented with 80 U RNaseOUT Recombinant Ribonuclease Inhibitor (Invitrogen) and 1× Protease Inhibitor Cocktail III for Mammalian Cells (Research Products International Corp.) per manufacturer's recommendations. The protein samples were tumbled overnight at 4° C. with Dynabeads Protein A (Life Technologies) that were bound to either β-actin mouse primary antibody (Cell Signaling Technologies; 3700S) or Rnase L mouse primary antibody (Santa Cruz Biotechnology; sc-74405). After antibody incubation, the beads were washed three times with 1×PBS supplemented with 0.02% Tween-20 and total RNA was extracted from beads using a miRNeasy Mini Kit (Qiagen) according to manufacturer's instructions.
Relative RNA expression levels before and after pull-down were determined by the ΔΔCt method and normalized to β-actin as a housekeeping gene.

For assay [2], the system named is Poly(GP), Poly(GA), TDP-43 inclusions. The assay can be described thus: Immunohistochemistry of sagittal brain sections of +/+PWR500 mice. The conditions noted are these: cortex. The format is in vivo, mouse. How it is done: Therapeutic Efficacy in a c9ALS/FD mouse model. All animal studies were completed as approved by the Scripps Florida Institutional Animal Care and Use Committee. A total of 24 mice (12+/+PWR500 [7 Male and 5 Female] and 12 WT [6 Male and 6 Female]) mice, age- and gender-matched and ranging in age from 18-22 weeks old were used in therapeutic efficacy studies (Table 6). Mice were anesthetized by intraperitoneal (i.p.) injection of 10 mg/mL Ketamine:1 mg/mL Xylazine solution. Intracerebroventricular (ICV) stereotactic injections of 10 μL of 7 (33 nmol) were administered into the right ventricle using the following coordinates: 0.2 mm posterior and 1.0 mm lateral to the right from the bregma and 3 mm deep. Mice were treated with 7 or vehicle consisting of 1% DMSO in Saline. Three weeks post-treatment, mice were euthanized, and tissue was harvested for study.
Immunohistochemistry. Tissue was excised postmortem, and brain tissue was sliced at the midline. The right hemisphere was stored in 10% neutral buffered formalin for 48 h. Tissue processing, embedding and sectioning were carried out by the Scripps Florida's Histology Core. Formalin-fixed tissue was placed on a paraffin processor (Sakura Tissue-Tek VIPS), embedded in paraffin, sectioned a 4 μm, and mounted on plus slides. The slides were optimized with the appropriate primary antibody dilutions (see below) on the Leica BOND-MAX platform followed by the Leica Refine Detection Kit containing the secondary polymer, DAB chromagen and counterstain. After dehydration in graded alcohols and cleared in xylene, the slides were cover slipped with a permanent mounting medium, Cytoseal 60 (Thermo Scientific). Images were taken in the right hemisphere of the cortex due north of the hippocampus with 5 images were taken per slice. Average number of aggregates or inclusions per cell was assessed for each sample and reported. Statistical analysis was measured using an unpaired t-test with Welch's correction. Immunohistochemical staining and analyses were completed blinded.

T1 sequence (Q05823 whole entry, one chain of several): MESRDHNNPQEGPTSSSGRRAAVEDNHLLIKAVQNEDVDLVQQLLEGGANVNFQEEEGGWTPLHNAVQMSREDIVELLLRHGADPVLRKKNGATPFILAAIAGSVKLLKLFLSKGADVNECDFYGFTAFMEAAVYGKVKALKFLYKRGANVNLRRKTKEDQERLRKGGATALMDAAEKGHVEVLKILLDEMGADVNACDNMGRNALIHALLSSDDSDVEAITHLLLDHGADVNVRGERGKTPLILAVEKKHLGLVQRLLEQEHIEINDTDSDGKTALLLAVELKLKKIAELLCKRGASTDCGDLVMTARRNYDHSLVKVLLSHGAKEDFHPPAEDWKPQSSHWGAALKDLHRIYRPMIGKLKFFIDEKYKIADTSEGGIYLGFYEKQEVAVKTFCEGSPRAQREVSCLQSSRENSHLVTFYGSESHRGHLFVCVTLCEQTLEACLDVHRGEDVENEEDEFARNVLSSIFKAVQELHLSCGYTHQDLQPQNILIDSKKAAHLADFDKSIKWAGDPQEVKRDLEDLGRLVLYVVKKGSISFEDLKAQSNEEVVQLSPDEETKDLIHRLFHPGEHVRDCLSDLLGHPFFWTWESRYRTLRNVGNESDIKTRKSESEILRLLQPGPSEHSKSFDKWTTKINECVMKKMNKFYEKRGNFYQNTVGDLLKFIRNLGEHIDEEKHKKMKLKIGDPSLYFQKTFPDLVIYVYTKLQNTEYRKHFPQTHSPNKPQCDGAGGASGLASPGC

With `Cc1c2ccncc2c(C)c2c1[nH]c1ccc(OCCOCCOCCNCCOCCOCCOc3ccc4[nH]c5c(C)c6ccncc6c(C)c5c4c3)cc12` [Compound 3], the “intron 1 levels of C9orf72 mRNA in competition with G4C2-ASO” value in the assay on r(G4C2)exp is reported as “dose-dependent increase”. Moreover, in the assay on (G4C2)66-No ATG-GFP mRNA, the “increase of transcript abundance in low-molecular-weight (LMW) fractions” value worked out at 17±1%, the “polysome loading of GAPDH (control transcript)” value was “no effect” and the “reduction of transcript loaded into high-molecular-weight (HMW) polysome fractions” value turned out to be 22±2%.
Consider `CCOC(=O)C1=C(Nc2ccccc2)S/C(=C\c2ccc(OCCOCCOCCOCCNC(=O)CCC(=O)N(CCOCCOCCOc3ccc4[nH]c5c(C)c6ccncc6c(C)c5c4c3)CCOCCOCCOc3ccc4[nH]c5c(C)c6ccncc6c(C)c5c4c3)c(O)c2)C1=O` [Compound 7], for which, in assay [1], the “enrichment of r(G4C2)exp-containing mRNA in anti-Rnase L immunoprecipitated fractions” value is reported as about 2 fold. Besides, in assay [2] (compared to vehicle), the “Poly(GA) aggregates” value is listed as “significant decrease” and the “Poly(GP) aggregates” value was “significant decrease”. Besides, in assay [2] (relative to vehicle), the TDP-43 inclusions entry is given as “decreased”.

These data come from patent US20230381170A1, “METHOD FOR TREATING ALS/FTD THROUGH DEGRADATION OF RNA REPEAT EXPANSION” (University of Florida Research Foundation, Incorporated, priority 2020, published 2023).
